Entries after “also recorded” stand apart in the source; their conditions may differ. Like-named read-outs stand apart in the source and are kept apart here. Each block holds one compound with its values, some of them ahead of it.
What was measured:
Nod2 [1] = molecular target: T1, Nod2 (Homo sapiens, UniProt Q9HC29); assay: in vitro binding assay of Nod2; set-up: expressed in transfected cells; host or cells: HEK293T
From the text: This could be from either the endogenous Nod2 and/or other targets of the bacterial cell wall ligands.

Nod2 [2] = molecular target: T1, Nod2; assay: Nod2 half-life by cycloheximide chase and western blot in HEK 293T-Nod2myc/Tet-op cells; format: cell-based; set-up: expressed in transfected cells; host or cells: HEK293T; conditions: for stabilization of Nod2 (in words): compared to untreated control
Procedure: HEK 293T-Nod2myc/Tet-op cells were incubated with MDP derivatives (compound D2 is shown) or water (Ctrl) and lysates were collected after cycloheximide treatment during the indicated time intervals. Equal amount of lysates were subjected to western blot and probed using rabbit anti-myc antibody. β-actin was used as a loading control.
Nod2 is a transiently stable protein. It is well-known that ligand binding can affect the stability of a receptor. We considered that the interaction of peptidoglycan derivatives with Nod2 could alter the stability of the protein. In order to determine if ligand interaction changes the half-life of Nod2, we analyzed the naturally occurring MDPs (D2, D9, D1), and a subset of the peptidoglycan derivatives with increased activity (D24, D25) or structural similarity (D53, D16) to D2 or D9. We made use of a tetracycline-induced Nod2 expressing cell line, an excellent match for endogenous Nod2 cell lines, and cycloheximide inhibition of protein synthesis to determine the half-life of Nod2 in the presence of the MDP derivatives. Half-life was determined by first order decay according to literature precedent. […] When Nod2 is not treated with a peptidoglycan derivative, the half-life is 7.1±1.4 hours. […] As compound D1 is the only compound tested that contains an amine, which will be positively charged at cellular pH, we were concerned that cell permeability may be a factor. We analyzed the ability of 6-amino-MDP (18 in Table 4), a MDP derivative that replaces the 6-primary-hydroxy group with an amine.

mouse Nod2 = molecular target: T2, mouse Nod2 (Mus musculus, UniProt Q8K3Z0); conditions: 200 μM, protein synthesis not inhibited; cited from earlier work
T2 sequence (Q8K3Z0 1-1020): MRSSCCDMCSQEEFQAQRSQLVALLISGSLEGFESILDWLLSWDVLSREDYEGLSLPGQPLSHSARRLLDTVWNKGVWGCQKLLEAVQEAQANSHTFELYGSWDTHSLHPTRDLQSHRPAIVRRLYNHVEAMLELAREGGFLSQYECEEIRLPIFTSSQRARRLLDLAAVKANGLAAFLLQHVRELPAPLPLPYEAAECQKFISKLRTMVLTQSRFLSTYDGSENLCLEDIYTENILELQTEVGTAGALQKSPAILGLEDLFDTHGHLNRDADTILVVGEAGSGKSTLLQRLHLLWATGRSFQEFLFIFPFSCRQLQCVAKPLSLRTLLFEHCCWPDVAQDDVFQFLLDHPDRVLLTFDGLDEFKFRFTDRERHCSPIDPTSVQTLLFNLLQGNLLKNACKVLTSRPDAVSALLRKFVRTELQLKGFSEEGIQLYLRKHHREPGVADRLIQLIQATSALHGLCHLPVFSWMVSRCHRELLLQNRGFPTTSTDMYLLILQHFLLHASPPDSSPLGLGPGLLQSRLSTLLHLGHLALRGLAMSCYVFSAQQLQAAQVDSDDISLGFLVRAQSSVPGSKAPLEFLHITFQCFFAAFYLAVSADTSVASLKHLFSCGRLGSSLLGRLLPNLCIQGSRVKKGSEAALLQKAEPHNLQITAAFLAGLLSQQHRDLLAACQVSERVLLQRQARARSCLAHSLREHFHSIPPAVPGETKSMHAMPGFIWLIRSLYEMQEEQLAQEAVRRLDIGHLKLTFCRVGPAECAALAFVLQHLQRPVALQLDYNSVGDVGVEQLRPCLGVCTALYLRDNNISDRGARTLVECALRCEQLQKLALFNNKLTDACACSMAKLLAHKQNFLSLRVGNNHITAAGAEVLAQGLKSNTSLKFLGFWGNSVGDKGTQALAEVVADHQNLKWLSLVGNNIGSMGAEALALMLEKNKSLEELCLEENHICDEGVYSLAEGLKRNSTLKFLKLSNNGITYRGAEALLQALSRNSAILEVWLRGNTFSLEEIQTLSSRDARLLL

Nod2 [3] = molecular target: T1, Nod2; assay: Nod2-dependent NF-κB luciferase reporter assay in transfected HEK293T cells; conditions: 20 μM; for NF-KB Fold Activation ± SD: 12 h, HEK293T, (+) Nod2 plasmid normalized to (−) Nod2 plasmid
Nod2 [4] = molecular target: T1, Nod2; set-up: expressed in transfected cells; host or cells: HEK293T; conditions: cited from earlier work
E. coli ΔmurQ-KU cells = assay: in vivo peptidoglycan remodeling and CuAAC fluorophore labeling, visualized by SIM; format: cell-based; conditions: 0.2% (w/v) sugar, fosfomycin 200 μg/mL, IPTG 1 mM, CuAAC with rhodamine or Cy-5
[5] = system: E. coli cells with AmgK, MurU and ΔMurQ; assay: labeling efficiency by flow cytometry (FACS) after click with Cy-5; format: cell-based; conditions: after CuAAC with Cy-5

T1 sequence (Q9HC29 whole entry): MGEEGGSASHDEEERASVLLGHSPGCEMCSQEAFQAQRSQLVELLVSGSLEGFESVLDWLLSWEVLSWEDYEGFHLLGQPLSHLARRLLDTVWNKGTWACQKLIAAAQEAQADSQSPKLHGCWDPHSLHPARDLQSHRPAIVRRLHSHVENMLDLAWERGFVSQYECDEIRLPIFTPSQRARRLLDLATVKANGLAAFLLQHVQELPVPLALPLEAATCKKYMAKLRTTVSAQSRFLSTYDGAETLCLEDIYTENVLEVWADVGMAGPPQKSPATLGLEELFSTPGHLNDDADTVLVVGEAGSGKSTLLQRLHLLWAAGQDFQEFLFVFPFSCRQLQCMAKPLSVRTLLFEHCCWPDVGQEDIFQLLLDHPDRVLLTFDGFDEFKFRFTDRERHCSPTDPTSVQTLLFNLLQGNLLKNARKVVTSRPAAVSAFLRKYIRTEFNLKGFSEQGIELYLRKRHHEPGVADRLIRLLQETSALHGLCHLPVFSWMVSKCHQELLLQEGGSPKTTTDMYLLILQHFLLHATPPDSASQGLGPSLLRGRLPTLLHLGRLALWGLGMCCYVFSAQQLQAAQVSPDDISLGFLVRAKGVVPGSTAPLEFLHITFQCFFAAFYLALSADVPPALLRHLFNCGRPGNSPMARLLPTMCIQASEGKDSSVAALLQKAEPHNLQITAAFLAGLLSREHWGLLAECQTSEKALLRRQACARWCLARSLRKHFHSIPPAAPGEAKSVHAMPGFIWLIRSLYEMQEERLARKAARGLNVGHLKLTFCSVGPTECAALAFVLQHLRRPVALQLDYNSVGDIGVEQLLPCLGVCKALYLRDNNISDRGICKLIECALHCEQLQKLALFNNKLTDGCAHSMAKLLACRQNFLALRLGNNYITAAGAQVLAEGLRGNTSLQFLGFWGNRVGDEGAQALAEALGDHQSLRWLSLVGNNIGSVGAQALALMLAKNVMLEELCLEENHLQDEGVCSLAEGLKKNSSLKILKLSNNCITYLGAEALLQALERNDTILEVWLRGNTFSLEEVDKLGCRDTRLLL

Structure (SMILES): CC(=O)N[C@H]1C(O)O[C@H](CO)[C@@H](O)[C@@H]1O[C@H](C)C(=O)O (some centres unmarked) [A2, N-acetyl-muramic acid]
fluorescent labeling of cells under SIM (E. coli ΔmurQ-KU cells): couldn't detect any fluorescence | fluorescent signal in the gated Cy-5 channel [5]: slight fluorescence intensity

Structure (SMILES): C[C@H](NC(=O)[C@@H](C)O[C@@H]1[C@@H](N)[C@H](O)O[C@H](CO)[C@H]1O)C(=O)N[C@H](CCC(=O)O)C(N)=O [D1, (R)-5-amino-4-((S)-2-((R)-2-(((2R,3R,4R,5S,6R)-3-amino-2,5-dihydroxy-6-(hydroxymethyl)tetrahydro-2H-pyran-4-yl)oxy)propanamido)propanamido)-5-oxopentanoic acid]
stabilization of Nod2 (in words) (Nod2 [2]): no stabilization of Nod2; also recorded: did not stabilize; also recorded: no stabilizing effect | NF-κB activation (in words) (Nod2 [3]): did not activate NF-κB; also recorded: does not elicit an immune response via the Nod2-dependent pathway | NF-KB Fold Activation ± SD (Nod2 [3]): No activation

Second part, led by results:

Kd (Nod2 [1]): 51 nM | stabilization of Nod2 (in words) (Nod2 [2]): capable of stabilizing Nod2 | NF-KB Fold Activation ± SD (Nod2 [3]): 1.8 ± 0.3 Fold
Structure (SMILES): CC(=O)N[C@H]1C(O)O[C@H](CO)[C@@H](O)[C@@H]1O[C@H](C)C(=O)N[C@@H](C)C(=O)N[C@H](CCC(=O)O)C(N)=O (some centres unmarked) [D2, N-acetyl-MDP]
effect on Nod2 level (mouse Nod2): led to the degradation of Nod2

stabilization of Nod2 (in words) (Nod2 [2]): capable of stabilizing Nod2 | NF-KB Fold Activation ± SD (Nod2 [3]): 3.1 ± 0.3 Fold
Structure (SMILES): C[C@@H](NC(=O)[C@@H](C)OC1C(NC(=O)CO)[C@@H](O)OC(CO)[C@H]1O)C(=O)NC(CCC(=O)O)C(N)=O (some centres unmarked) [D9, N-glycolyl-MDP]

increase of the half-life of Nod2 (Nod2 [2]; versus untreated): ~3 fold
Structure (SMILES): CC(=O)NC1C(O)OC(CN)C(O)[C@@H]1O[C@H](C)C(=O)N[C@@H](C)C(=O)N[C@H](CCC(=O)O)C(N)=O (some centres unmarked) [6-amino-MDP]
NF-κB activation in a Nod2-dependent manner (known) (Nod2 [4]): activate NF-κB in a Nod2-dependent manner | NF-KB Fold Activation ± SD (Nod2 [4]; value marked with reference 19): 2.8 ± 0.1^19 Fold

From patent publication US10988508B2, “Synthetic N-acetyl-muramic acid derivatives and uses thereof” (University of Delaware, priority 2015, dated 2021)
